Results: ChEMBL document CHEMBL1201862, “PubChem BioAssay data set” (2004)
The source made the active and inactive calls.

Columns and labels:
[1] = viability of HCT116 lacking mutant beta-catenin – cell-based, human colon tumor, dose response (AID 1045); type: functional;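 note: HCT116 colon tumor cells with beta catenin knocked out; cells exposed to compound for 60 hours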
[2] = target: Fatty acid synthase (Homo sapiens, UniProt P49327); assay: inhibition of human FAS-TE enzyme activity – biochemical, kinetic fluorescence intensity, dose response (AID 624326); type: functional;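 note: rate of fluorescence rise from hydrolysis of a fluorogenic O-methyl fluorescein ester substrate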
Fatty acid synthase, sequence (P49327 whole entry): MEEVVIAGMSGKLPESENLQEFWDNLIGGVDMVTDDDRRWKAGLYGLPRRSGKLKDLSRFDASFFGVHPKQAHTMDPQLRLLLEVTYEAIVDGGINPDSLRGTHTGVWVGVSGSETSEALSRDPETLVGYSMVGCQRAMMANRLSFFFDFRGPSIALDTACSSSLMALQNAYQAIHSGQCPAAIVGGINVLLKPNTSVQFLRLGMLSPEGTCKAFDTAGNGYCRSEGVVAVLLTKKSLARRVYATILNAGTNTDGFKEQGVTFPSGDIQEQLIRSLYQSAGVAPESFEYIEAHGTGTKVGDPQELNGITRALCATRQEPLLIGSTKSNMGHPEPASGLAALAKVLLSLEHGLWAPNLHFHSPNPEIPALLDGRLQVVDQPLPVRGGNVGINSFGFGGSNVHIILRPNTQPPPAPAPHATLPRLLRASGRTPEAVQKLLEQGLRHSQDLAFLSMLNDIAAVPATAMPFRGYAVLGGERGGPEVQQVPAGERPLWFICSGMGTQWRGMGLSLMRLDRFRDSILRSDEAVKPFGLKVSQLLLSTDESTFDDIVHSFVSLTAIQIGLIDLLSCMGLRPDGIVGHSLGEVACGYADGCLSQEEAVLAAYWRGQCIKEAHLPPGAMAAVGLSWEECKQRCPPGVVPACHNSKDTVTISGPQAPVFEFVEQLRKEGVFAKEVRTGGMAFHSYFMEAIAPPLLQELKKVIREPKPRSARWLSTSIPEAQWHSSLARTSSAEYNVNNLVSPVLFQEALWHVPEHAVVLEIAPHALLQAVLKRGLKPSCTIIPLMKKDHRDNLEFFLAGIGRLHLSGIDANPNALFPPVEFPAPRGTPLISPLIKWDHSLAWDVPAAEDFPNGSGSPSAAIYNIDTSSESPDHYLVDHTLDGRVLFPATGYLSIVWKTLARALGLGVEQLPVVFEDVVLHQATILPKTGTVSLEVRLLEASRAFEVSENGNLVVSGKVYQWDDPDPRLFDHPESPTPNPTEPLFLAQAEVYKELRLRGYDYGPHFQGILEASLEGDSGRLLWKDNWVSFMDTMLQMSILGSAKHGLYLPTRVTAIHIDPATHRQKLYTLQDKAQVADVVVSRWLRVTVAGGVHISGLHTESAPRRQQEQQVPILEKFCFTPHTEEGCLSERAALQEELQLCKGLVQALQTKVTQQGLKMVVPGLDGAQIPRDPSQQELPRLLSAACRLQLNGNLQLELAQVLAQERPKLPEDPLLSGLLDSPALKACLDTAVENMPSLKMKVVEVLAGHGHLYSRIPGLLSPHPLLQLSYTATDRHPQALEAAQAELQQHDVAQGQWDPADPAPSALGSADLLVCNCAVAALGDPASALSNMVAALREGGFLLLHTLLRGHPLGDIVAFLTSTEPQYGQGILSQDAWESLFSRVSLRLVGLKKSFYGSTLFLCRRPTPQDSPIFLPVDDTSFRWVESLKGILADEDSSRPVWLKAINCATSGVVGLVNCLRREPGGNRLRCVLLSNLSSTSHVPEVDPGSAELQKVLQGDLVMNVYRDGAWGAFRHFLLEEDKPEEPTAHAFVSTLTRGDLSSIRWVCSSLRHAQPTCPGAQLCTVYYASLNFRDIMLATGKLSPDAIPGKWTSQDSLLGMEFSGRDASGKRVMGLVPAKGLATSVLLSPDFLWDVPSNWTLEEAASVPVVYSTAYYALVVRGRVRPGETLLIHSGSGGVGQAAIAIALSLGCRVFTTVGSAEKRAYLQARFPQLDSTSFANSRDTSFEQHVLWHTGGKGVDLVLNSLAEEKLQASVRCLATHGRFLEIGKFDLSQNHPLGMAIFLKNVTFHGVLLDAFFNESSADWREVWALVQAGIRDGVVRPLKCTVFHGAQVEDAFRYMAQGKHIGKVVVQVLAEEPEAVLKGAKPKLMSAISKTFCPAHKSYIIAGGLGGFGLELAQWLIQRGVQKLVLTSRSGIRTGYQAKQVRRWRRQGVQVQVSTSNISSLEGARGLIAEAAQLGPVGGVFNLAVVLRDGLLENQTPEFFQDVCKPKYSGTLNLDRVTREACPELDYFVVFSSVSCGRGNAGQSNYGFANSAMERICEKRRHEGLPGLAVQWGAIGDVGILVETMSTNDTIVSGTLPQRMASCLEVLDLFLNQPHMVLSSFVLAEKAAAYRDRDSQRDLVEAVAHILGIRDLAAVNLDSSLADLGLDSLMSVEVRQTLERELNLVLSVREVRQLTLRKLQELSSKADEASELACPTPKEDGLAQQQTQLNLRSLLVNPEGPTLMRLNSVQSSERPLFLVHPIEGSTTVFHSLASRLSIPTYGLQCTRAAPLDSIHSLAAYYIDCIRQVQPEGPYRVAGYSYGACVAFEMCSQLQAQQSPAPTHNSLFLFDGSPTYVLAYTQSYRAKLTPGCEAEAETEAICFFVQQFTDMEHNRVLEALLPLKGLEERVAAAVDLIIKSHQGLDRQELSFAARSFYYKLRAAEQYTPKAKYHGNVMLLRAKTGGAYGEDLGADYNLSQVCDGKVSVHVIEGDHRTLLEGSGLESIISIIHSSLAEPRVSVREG

[3] = tested on: HEK293; assay: cells; type: functional, cell-based; settings: Homo sapiens
[4] = target: T1, Hexokinase HKDC1 (Homo sapiens, UniProt Q2TB90); assay: inhibition of HKDC1 glucose phosphorylation – biochemical, W721R variant, dose response (AID 504729); type: functional
T1 sequence (Q2TB90 whole entry): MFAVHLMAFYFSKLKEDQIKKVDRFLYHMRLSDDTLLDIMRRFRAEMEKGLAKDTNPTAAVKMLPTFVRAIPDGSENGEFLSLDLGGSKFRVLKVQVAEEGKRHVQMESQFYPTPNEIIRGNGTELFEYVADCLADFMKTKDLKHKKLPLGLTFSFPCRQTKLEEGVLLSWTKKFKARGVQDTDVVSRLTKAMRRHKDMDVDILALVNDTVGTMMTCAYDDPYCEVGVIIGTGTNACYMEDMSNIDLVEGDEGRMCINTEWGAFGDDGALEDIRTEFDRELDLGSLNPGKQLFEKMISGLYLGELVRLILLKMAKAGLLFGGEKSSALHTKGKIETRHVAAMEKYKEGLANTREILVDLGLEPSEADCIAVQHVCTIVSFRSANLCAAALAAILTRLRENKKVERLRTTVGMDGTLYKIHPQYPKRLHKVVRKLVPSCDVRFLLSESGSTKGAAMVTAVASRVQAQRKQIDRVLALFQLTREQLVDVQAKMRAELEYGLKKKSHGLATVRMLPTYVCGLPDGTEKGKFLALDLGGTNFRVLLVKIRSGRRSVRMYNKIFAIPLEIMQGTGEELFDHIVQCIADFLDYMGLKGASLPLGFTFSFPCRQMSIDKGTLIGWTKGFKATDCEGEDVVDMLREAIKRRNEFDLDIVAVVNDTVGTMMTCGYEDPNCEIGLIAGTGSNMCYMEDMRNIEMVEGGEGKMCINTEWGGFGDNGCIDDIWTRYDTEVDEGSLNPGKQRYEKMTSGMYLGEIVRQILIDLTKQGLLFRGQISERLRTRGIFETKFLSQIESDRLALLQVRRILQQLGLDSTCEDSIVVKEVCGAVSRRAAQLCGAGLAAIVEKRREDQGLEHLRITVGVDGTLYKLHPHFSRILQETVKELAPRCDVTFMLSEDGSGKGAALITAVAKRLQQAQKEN

[5] = tested on: HEK293; assay: cells; type: functional, cell-based; settings: Homo sapiens; remark: listed apart in the source
[6] = tested on: HEK293; assay: inhibition of NOD1-driven NF-kB reporter – cell-based, luminescence, uHTS, primary screen (AID 1578); type: functional; settings: Homo sapiens
[7] = target: Melanocortin receptor 4 (Homo sapiens, UniProt P32245); assay: inhibitors of MC4R cAMP signaling – cell-based, TR-FRET, biased antagonists, dose response (AID 602298); type: functional;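 note: antagonist potency against agonist-stimulated cAMP production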
Melanocortin receptor 4, sequence (P32245 whole entry): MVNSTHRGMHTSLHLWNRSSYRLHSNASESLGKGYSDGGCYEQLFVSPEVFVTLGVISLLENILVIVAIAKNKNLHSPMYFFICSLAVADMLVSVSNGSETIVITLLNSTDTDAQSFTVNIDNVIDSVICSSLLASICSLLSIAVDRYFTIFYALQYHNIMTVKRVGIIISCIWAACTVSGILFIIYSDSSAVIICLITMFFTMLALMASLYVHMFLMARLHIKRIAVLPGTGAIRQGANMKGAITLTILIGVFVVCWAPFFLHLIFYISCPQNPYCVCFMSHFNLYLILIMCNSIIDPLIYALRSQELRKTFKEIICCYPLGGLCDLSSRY

[8] = target: T2, CAAX prenyl protease 2 (Saccharomyces cerevisiae S288c, UniProt Q03530); type: biochemical
T2 sequence (Q03530 whole entry): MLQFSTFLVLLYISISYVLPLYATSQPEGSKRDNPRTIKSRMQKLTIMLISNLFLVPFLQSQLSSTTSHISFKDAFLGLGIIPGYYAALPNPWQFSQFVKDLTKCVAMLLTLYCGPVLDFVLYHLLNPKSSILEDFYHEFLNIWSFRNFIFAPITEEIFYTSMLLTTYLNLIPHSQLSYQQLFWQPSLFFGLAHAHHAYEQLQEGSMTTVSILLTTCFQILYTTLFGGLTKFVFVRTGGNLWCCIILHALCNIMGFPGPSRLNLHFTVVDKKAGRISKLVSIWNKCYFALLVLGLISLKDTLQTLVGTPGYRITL

[9] = cAMP pathway inhibition in counterscreen cell line – TR-FRET cAMP detection, counter-screen for MC4R biased antagonist project, dose response (AID 602305); type: functional, cell-based;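 note: U2OS cells stimulated with forskolin near its EC80 as the cAMP inducer; potency is for inhibition of forskolin-stimulated cAMP signaling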
[10] = tested on: INS1; assay: INS-1E survival protection against cytokine death – cell-based, luminescence, retest, dose response (AID 449756); type: functional; settings: Rattus norvegicus;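 note: cell death triggered by IL-1 beta plus TNF-alpha plus IFN-gamma mixture; protective hits raise ATP signal compared with cytokine alone wells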

O=C(NCCc1ccccc1)C(c1cccs1)N(C(=O)CCl)c1ccc(Cl)cc1 (stereo not given)
EC50 [1]: 2.62 µM (active)
IC50 [2]: 10.3 µM (active)
IC50 [3]: 4.24 µM (active)
IC50 [4]: 35.7 µM (inactive)
IC50 [5]: 11.5 µM (active)
EC50 [6]: 5.3 µM (active)

CCCCCCCCCC[N+](C)(C)CC/C=C1/c2ccccc2Sc2ccc(Cl)cc21
IC50 [7]: 31.2 µM (inactive)
AC50 [8]: 4.96 µM (active)
IC50 [9]: 22.6 µM (inactive)
AC50 [10]: 5.67 µM (active)
